Each structure is given as a SMILES string. pIC50: −log10 of the molar value.

Drawing on BindingDB's records for doi:10.1016/j.ejmech.2009.09.025 (2010), this text covers IC50 for 18 molecules.

Assay [1] deals with Glutamate receptor ionotropic, kainate 2 (GluK2/GRIK2) (Homo sapiens) (UniProt Q13002). The experiment in a line: Antagonist activity at human recombinant GluR6 expressed in HEK cells coexpressing aequorine assessed as inhibition of glutamate-induced Ca2+ influx at 10 uM by luminescence reporter assay.
Chain of Glutamate receptor ionotropic, kainate 2 (GluK2/GRIK2) (Homo sapiens) (Q13002 whole entry, looked up): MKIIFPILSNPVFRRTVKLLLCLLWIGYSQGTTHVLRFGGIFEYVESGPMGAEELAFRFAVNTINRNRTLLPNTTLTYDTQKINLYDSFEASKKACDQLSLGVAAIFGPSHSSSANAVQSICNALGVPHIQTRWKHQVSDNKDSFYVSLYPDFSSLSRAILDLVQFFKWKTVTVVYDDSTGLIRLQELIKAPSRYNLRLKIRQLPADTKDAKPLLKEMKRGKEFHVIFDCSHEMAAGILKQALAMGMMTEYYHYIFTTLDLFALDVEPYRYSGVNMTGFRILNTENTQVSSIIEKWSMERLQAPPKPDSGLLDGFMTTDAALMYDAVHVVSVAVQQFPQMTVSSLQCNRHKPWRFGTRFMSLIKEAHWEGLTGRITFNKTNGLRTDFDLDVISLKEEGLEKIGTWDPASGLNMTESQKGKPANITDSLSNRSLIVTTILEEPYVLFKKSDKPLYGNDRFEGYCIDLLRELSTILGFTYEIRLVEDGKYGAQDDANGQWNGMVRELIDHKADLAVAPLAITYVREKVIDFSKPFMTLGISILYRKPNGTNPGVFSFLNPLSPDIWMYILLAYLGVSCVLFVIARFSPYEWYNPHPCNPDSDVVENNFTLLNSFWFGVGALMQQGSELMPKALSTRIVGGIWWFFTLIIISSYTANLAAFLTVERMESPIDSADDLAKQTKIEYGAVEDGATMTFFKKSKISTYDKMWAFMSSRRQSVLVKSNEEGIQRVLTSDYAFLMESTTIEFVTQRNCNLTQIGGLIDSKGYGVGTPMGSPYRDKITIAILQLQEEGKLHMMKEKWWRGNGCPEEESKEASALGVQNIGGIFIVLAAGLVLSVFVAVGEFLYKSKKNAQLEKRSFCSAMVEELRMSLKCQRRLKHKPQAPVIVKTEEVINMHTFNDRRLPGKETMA
In assay [2] the target is Glutamate receptor ionotropic, kainate 1 (GluK1/GRIK1) (Homo sapiens) (UniProt P39086). The assay is described as follows: Antagonist activity at human recombinant GluR5 expressed in HEK cells coexpressing aequorine assessed as inhibition of glutamate-induced Ca2+ influx by luminescence reporter assay. A general note: Reporter assays use an easily measured gene product as a stand-in for the process of interest.
Chain of Glutamate receptor ionotropic, kainate 1 (GluK1/GRIK1) (Homo sapiens) (P39086 whole entry, looked up): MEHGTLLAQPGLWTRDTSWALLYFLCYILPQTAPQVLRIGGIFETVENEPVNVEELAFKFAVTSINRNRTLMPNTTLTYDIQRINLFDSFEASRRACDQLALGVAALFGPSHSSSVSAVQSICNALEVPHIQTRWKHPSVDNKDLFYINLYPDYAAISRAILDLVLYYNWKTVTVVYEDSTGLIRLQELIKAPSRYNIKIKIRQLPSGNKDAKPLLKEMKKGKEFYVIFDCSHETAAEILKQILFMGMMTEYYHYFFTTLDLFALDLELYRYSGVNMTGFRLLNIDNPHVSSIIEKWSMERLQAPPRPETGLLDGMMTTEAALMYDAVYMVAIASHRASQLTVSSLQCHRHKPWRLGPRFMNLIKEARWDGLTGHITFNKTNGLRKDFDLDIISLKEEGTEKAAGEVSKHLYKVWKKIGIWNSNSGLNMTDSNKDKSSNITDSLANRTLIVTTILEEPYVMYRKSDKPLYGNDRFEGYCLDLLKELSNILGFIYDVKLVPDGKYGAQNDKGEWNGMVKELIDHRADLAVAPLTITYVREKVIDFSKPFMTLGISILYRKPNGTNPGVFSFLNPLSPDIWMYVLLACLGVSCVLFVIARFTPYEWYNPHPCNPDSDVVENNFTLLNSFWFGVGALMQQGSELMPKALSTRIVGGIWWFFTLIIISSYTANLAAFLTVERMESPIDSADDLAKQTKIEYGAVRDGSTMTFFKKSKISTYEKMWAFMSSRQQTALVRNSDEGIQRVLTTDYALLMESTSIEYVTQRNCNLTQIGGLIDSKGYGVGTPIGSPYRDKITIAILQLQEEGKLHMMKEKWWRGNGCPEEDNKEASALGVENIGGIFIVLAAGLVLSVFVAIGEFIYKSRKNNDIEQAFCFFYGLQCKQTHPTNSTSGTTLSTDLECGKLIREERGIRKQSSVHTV

With `Cc1c(-c2ccccc2)sc(N)c1C#N` [2-Amino-4-methyl-5-phenylthiophene-3-carbonitrile], the pIC50 in assay [1] was 4.15.

As for `C[C@H](C[C@H](N)C(=O)O)C(=O)O` [2-Amino-4-methyl-pentanedioic acid], in assay [1], the negative logarithm of the IC50 (pIC50) was 5.40.

Take `CCOC(=O)c1c(N=C=S)sc(-c2ccccc2)c1C` [2-isothiocyanato-4-methyl-5-phenylthiophene-3-carboxylate]: the pIC50 in assay [1] was 5.46.

In the case of `N#Cc1cc2c(cc1[N+](=O)[O-])=NC(=O)C(=O)N=2` [7-nitro-2,3-dioxo-2,3-dihydroquinoxaline-6-carbonitrile], in assay [1], the pIC50 is 4.64.

As for `Cc1c(-c2ccccc2)sc(N)c1C(=O)c1ccccc1` [(2-Amino-4-methyl-5-phenylthiophen-3-yl)(phenyl)methanone], in assay [1], the negative-log IC50 (pIC50) was 4.97.

As to `Clc1ccc(CO[C@@H](Cn2ccnc2)c2ccc(Cl)cc2Cl)c(Cl)c1` [Brentan], the negative-log IC50 (pIC50) in assay [1] was 5.19.

Regarding `CCOC(=O)c1c(N=NN(C)C)sc(-c2ccccc2)c1C` [Ethyl 2-(3,3-dimethyltriaz-1-enyl)-4-methyl-5-phenylthiophene-3-carboxylate], the negative-log IC50 (pIC50) in assay [1] was 4.42.

`CCOC(=O)c1c(N=NC#N)sc(-c2ccccc2)c1C` [Ethyl 2-(cyanodiazenyl)-4-methyl-5-phenylthiophene-3-carboxylate]: the negative-log IC50 (pIC50) in assay [1] is 4.68.

As for `CCOC(=O)c1c(N)sc(-c2ccccc2)c1-c1ccccc1` [Ethyl 2-amino-4,5-diphenylthiophene-3-carboxylate], the pIC50 in assay [1] was 5.35.

As to `CCOC(=O)c1c(N)sc(-c2ccccc2)c1C` [Ethyl 2-amino-4-methyl-5-phenylthiophene-3-carboxylate], the pIC50 in assay [1] was 6.12.

For the molecule `CCOC(=O)c1c(N)sc(-c2ccccc2Cl)c1C` [Ethyl 2-amino-5-(2-chlorophenyl)-4-methylthiophene-3-carboxylate], the pIC50 in assay [1] was 5.24.

For the molecule `CCOC(=O)c1c(N)sc(-c2ccc(F)cc2)c1C` [Ethyl 2-amino-5-(4-fluorophenyl)-4-methylthiophene-3-carboxylate], the negative logarithm of the IC50 (pIC50) in assay [1] is 4.92.

With `CCOC(=O)c1c(N)sc(-c2ccc(OC)cc2)c1C` [Ethyl 2-amino-5-(4-methoxyphenyl)-4-methylthiophene-3-carboxylate], the pIC50 in assay [1] is 5.07.

As to `CCOC(=O)c1c(Cl)sc(-c2ccccc2)c1C` [Ethyl 2-chloro-4-methyl-5-phenylthiophene-3-carboxylate], the pIC50 in assay [1] was 5.00.

Take `CCOC(=O)c1c(N=NN2CCOCC2)sc(-c2ccccc2)c1C` [Ethyl 4-methyl-2-(morpholinodiazenyl)-5-phenylthiophene-3-carboxylate]: the pIC50 in assay [1] was 4.27.

Regarding `COC(=O)c1c(N)sc(-c2ccccc2)c1C` [Methyl 2-amino-4-methyl-5-phenylthiophene-3-carboxylate], the values for the pIC50 in assay [1] and in assay [2] were 5.39 and 4.52, respectively.

Take `CCCOC(=O)c1c(N)sc(-c2ccccc2)c1C` [Propyl 2-amino-4-methyl-5-phenylthiophene-3-carboxylate]: in assay [1], the negative logarithm of the IC50 (pIC50) was 5.62.

Regarding `Cc1c(-c2ccccc2)sc(N)c1C(=O)OC(C)(C)C` [Tert-Butyl 2-amino-4-methyl-5-phenylthiophene-3-carboxylate], in assay [1], the pIC50 was 5.44.

The term pIC50 denotes the negative decadic logarithm of the IC50, by convention in mol/L.
